Results on two molecules are retold here after article PMC4620497 (Scientific Reports, 2015).

For one test, the target named is ERBB2 (Homo sapiens, UniProt P04626). The arrangement: method as in earlier work. The following applies: Table S1; cited from earlier work.
A further test has as its target ERN1 (Homo sapiens, UniProt O75460). The arrangement: method as in earlier work. Conditions: Table S1; cited from earlier work.
The next test deals with T1, INSR (Homo sapiens, UniProt P06213).
T1 construct: purchased DiscoveRx KINOMEscan (Ambit Biosciences)
T1 sequence (P06213 28-1382): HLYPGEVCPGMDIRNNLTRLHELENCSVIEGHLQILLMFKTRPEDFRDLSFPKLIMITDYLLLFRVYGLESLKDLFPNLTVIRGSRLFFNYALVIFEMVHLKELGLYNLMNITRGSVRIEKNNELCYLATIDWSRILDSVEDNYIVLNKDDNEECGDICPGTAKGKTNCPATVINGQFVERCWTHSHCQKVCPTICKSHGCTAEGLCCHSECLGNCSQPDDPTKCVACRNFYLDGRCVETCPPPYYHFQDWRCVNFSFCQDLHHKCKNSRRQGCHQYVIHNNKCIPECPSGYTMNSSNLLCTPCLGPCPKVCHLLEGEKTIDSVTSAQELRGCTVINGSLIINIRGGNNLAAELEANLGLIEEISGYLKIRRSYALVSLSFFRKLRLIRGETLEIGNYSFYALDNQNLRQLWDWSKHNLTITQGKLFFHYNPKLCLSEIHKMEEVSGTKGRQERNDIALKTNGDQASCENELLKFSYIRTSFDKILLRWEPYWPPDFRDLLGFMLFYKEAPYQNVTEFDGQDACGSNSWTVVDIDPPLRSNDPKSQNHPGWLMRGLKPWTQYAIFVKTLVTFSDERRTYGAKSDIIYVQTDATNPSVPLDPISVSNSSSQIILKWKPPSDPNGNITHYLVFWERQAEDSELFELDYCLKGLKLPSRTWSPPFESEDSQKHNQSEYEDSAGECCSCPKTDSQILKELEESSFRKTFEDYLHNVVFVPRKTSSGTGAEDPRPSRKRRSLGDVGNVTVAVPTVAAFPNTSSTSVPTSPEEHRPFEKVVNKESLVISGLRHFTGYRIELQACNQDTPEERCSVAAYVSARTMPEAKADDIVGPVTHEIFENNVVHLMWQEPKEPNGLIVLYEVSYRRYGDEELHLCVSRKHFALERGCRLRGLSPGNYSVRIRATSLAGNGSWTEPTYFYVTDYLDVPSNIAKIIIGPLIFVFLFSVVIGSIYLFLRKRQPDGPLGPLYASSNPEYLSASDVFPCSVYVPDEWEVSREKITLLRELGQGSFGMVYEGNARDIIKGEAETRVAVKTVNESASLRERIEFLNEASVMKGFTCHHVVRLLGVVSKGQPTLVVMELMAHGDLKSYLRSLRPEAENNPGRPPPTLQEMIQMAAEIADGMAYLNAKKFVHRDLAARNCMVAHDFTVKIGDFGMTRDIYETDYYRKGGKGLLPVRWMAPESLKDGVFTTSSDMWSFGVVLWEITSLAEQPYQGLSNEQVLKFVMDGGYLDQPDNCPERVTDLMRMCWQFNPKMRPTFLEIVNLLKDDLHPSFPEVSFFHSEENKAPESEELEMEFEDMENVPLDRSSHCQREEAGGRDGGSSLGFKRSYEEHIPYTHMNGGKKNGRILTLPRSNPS
Put plainly: KINOMEscan panel screen. The format is binding. The following applies: read-out: Percent Control(%).

The target in the next test is T2, AKT3 (Homo sapiens, UniProt Q9Y243).
T2 construct: purchased DiscoveRx KINOMEscan (Ambit Biosciences)
Put plainly: KINOMEscan panel screen. Conditions: read-out: Percent Control(%). The format is binding.

A further test deals with T3, ACVR1 (Homo sapiens, UniProt Q04771).
T3 construct: purchased DiscoveRx KINOMEscan (Ambit Biosciences)
T3 sequence (Q04771 21-509): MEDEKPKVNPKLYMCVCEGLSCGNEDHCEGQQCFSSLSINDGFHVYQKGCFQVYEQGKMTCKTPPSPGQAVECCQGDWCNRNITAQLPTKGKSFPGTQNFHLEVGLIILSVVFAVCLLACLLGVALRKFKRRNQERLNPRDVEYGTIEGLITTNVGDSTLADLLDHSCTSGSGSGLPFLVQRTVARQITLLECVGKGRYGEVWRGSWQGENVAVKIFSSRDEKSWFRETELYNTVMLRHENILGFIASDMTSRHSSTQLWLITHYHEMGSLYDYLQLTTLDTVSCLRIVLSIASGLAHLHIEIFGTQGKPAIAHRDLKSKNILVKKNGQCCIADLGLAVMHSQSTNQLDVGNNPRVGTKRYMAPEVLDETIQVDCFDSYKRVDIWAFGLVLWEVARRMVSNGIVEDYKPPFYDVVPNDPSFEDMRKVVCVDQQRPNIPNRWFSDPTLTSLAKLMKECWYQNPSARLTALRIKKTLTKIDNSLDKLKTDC
Put plainly: KINOMEscan panel screen. It counts as binding. The following applies: read-out: Percent Control(%).

The target of the next test is T4, PLK2 (Homo sapiens, UniProt Q9NYY3).
T4 construct: purchased DiscoveRx KINOMEscan (Ambit Biosciences)
Put plainly: KINOMEscan kinase binding assay (Kd).

Another test has as its target T5, ZAP70 (Homo sapiens, UniProt P43403).
T5 construct: purchased DiscoveRx KINOMEscan (Ambit Biosciences)
Put plainly: KINOMEscan panel screen. The format is binding. Conditions: read-out: Percent Control(%).

For a further test, the target named is T6, CSF1R (Homo sapiens, UniProt P07333).
T6 construct: purchased DiscoveRx KINOMEscan (Ambit Biosciences)
T6 sequence (P07333 20-972): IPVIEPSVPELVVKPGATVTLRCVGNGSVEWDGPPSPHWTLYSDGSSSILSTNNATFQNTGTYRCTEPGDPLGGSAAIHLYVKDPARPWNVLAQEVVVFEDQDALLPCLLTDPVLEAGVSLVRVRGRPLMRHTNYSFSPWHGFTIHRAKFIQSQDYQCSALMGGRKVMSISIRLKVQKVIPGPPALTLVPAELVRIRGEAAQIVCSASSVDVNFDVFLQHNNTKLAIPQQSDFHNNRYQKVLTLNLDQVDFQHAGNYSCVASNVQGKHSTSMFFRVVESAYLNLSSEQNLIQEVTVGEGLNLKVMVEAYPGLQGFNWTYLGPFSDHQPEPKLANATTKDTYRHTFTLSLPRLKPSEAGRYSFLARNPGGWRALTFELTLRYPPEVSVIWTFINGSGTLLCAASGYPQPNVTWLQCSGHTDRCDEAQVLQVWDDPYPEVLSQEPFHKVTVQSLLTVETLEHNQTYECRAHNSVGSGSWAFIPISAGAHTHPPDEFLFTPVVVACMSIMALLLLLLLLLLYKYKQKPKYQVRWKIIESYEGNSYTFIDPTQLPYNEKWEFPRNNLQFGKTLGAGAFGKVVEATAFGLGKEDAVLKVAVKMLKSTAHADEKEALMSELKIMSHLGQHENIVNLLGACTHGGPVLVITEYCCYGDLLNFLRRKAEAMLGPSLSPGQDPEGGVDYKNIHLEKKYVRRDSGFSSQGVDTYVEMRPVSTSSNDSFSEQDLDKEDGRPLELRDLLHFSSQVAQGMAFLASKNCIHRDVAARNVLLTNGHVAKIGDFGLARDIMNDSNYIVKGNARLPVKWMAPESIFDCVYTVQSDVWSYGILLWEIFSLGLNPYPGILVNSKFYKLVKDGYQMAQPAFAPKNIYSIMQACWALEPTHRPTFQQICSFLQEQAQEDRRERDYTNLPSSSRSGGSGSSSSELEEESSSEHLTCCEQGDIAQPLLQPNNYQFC
Put plainly: KINOMEscan panel screen. The format is binding. The following applies: read-out: Percent Control(%).

The next test concerns the target T7, PKMYT1 (Homo sapiens, UniProt Q99640).
T7 construct: purchased DiscoveRx KINOMEscan (Ambit Biosciences)
Put plainly: KINOMEscan panel screen. The format is binding. The following applies: read-out: Percent Control(%).

A further test has as its target T8, RET(V804L) (Homo sapiens, UniProt P07949, V804L).
T8 construct: purchased DiscoveRx KINOMEscan (Ambit Biosciences)
Put plainly: KINOMEscan panel screen. It counts as binding. Conditions: read-out: Percent Control(%).

A further test deals with T9, FGFR2 (Homo sapiens, UniProt P21802).
T9 construct: purchased DiscoveRx KINOMEscan (Ambit Biosciences)
Put plainly: KINOMEscan panel screen. It counts as binding. Conditions: read-out: Percent Control(%).

In another test the target is T10, CAMK1D (Homo sapiens, UniProt Q8IU85).
T10 construct: purchased DiscoveRx KINOMEscan (Ambit Biosciences)
Put plainly: KINOMEscan panel screen. It counts as binding. The following applies: read-out: Percent Control(%).

Another test has as its target T11, MET(Y1235D) (Homo sapiens, UniProt P08581, Y1235D).
T11 construct: purchased DiscoveRx KINOMEscan (Ambit Biosciences)
Put plainly: KINOMEscan panel screen. It counts as binding. Conditions: read-out: Percent Control(%).

The target in a further test is T12, CAMK4 (Homo sapiens, UniProt Q16566).
T12 construct: purchased DiscoveRx KINOMEscan (Ambit Biosciences)
T12 sequence (Q16566 1-473): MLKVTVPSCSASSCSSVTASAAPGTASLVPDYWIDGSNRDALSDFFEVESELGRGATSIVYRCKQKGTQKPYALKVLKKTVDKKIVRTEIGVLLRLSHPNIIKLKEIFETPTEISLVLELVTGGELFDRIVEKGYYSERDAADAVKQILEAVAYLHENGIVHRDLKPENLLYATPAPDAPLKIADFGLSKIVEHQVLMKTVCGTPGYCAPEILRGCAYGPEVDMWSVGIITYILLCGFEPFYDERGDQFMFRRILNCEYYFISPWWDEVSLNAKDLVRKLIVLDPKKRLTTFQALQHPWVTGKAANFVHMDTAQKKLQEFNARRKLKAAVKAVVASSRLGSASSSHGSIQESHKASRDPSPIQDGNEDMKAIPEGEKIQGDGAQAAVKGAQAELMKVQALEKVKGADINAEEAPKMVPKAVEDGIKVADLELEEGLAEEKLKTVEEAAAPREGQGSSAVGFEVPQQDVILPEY
Put plainly: KINOMEscan panel screen. The format is binding. The following applies: read-out: Percent Control(%).

The target of a further test is T13, TNK1 (Homo sapiens, UniProt Q13470).
T13 construct: purchased DiscoveRx KINOMEscan (Ambit Biosciences)
Put plainly: KINOMEscan panel screen. The format is binding. Conditions: read-out: Percent Control(%).

The target of another test is PAK1 (Homo sapiens, UniProt Q13153). Put plainly: KINOMEscan panel screen. The format is binding. Conditions: read-out: Percent Control(%).
The target of the next test is T14, SRPK2 (Homo sapiens, UniProt P78362).
T14 construct: purchased DiscoveRx KINOMEscan (Ambit Biosciences)
Put plainly: KINOMEscan panel screen. It counts as binding. Conditions: read-out: Percent Control(%).

A further test concerns WM2664. Put plainly: MTT cell viability assay. Conditions: Homo sapiens, WM 266-4, 72 h. A general note: Formazan colour is commonly taken as a measure of viable cells.
Test [1] deals with T15, KIT (Homo sapiens, UniProt P10721).
T15 construct: DNA tag (qPCR read-out); purchased Ambit Biosciences (KINOMEscan service)
T15 sequence (P10721 26-976): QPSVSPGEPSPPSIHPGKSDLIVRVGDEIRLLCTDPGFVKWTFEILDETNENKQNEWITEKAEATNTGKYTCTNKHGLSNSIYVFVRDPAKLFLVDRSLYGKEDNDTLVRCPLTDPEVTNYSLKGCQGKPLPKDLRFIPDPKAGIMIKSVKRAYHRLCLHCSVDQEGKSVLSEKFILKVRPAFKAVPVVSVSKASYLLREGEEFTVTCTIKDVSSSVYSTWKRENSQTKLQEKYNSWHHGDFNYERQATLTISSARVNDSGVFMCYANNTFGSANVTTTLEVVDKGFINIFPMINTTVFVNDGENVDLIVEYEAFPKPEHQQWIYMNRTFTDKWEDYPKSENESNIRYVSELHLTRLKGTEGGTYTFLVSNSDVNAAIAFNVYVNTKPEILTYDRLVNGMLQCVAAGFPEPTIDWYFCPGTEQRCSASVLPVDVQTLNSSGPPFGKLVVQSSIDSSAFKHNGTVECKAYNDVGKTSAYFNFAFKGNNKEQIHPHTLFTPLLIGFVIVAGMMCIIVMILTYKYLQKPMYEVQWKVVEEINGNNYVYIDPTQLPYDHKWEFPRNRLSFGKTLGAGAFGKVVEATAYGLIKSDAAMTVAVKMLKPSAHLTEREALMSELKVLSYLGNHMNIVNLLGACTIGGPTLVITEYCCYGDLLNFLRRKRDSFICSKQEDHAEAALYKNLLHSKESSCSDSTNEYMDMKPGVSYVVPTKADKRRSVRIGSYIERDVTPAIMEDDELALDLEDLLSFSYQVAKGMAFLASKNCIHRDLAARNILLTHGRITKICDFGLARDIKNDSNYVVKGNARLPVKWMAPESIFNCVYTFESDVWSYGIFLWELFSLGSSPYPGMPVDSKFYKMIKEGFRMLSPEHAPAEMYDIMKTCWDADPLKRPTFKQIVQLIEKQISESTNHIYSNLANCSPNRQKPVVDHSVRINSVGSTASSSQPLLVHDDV
Put plainly: KINOMEscan panel screen. It counts as binding. The following applies: read-out: Percent Control(%).

Another test has as its target T16, PDPK1 (Homo sapiens, UniProt O15530).
T16 construct: purchased DiscoveRx KINOMEscan (Ambit Biosciences)
Put plainly: KINOMEscan panel screen. It counts as binding. Conditions: read-out: Percent Control(%).

Another test concerns the target T17, FGFR1 (Homo sapiens, UniProt P11362).
T17 construct: purchased DiscoveRx KINOMEscan (Ambit Biosciences)
Put plainly: KINOMEscan panel screen. The format is binding. Conditions: read-out: Percent Control(%).

The target in test [2] is T15, KIT. Put plainly: KINOMEscan kinase binding assay (Kd).
The next test has as its target T18, SRPK3 (Homo sapiens, UniProt Q9UPE1).
T18 construct: purchased DiscoveRx KINOMEscan (Ambit Biosciences)
Put plainly: KINOMEscan panel screen. The format is binding. The following applies: read-out: Percent Control(%).

A further test deals with T19, MAP3K2 (Homo sapiens, UniProt Q9Y2U5).
T19 construct: purchased DiscoveRx KINOMEscan (Ambit Biosciences)
Put plainly: KINOMEscan panel screen. It counts as binding. Conditions: read-out: Percent Control(%).

The next test concerns the target T20, TIE1 (Homo sapiens, UniProt P35590).
T20 construct: purchased DiscoveRx KINOMEscan (Ambit Biosciences)
Put plainly: KINOMEscan panel screen. It counts as binding. The following applies: read-out: Percent Control(%).

For a further test, the target named is T21, PDGFRβ (Homo sapiens, UniProt P09619).
T21 construct: purchased Ambit Biosciences (KINOMEscan)
Put plainly: KINOMEscan kinase binding assay (Kd).

A further test deals with T22, DYRK1A (Homo sapiens, UniProt Q13627).
T22 construct: purchased DiscoveRx KINOMEscan (Ambit Biosciences)
Put plainly: KINOMEscan panel screen. The format is binding. The following applies: read-out: Percent Control(%).

Another test concerns the target T23, MLCK (Homo sapiens, UniProt Q32MK0).
T23 construct: purchased DiscoveRx KINOMEscan (Ambit Biosciences)
Put plainly: KINOMEscan panel screen. The format is binding. Conditions: read-out: Percent Control(%).

In a further test the target is T24, DDR2 (Homo sapiens, UniProt Q16832).
T24 construct: purchased DiscoveRx KINOMEscan (Ambit Biosciences)
Put plainly: KINOMEscan panel screen. The format is binding. The following applies: read-out: Percent Control(%).

The test system of test [3] is MYC, CCND1, NKD1 transcripts in STF3a cells. Put plainly: Real-time qPCR of β-catenin target genes in STF3a cells. The format is cell-based. Conditions: 24 h.
In a further test the target is T25, FGR (Homo sapiens, UniProt P09769).
T25 construct: purchased DiscoveRx KINOMEscan (Ambit Biosciences)
Put plainly: KINOMEscan panel screen. It counts as binding. Conditions: read-out: Percent Control(%).

The next test deals with T26, LRRK2(G2019S) (Homo sapiens, UniProt Q5S007, G2019S).
T26 construct: purchased DiscoveRx KINOMEscan (Ambit Biosciences)
Put plainly: KINOMEscan panel screen. The format is binding. The following applies: read-out: Percent Control(%).

In the next test the target is T27, MAK (Homo sapiens, UniProt P20794).
T27 construct: purchased DiscoveRx KINOMEscan (Ambit Biosciences)
Put plainly: KINOMEscan panel screen. The format is binding. The following applies: read-out: Percent Control(%).

A further test addresses T28, CAMK1 (Homo sapiens, UniProt Q14012).
T28 construct: purchased DiscoveRx KINOMEscan (Ambit Biosciences)
Put plainly: KINOMEscan panel screen. The following applies: read-out: Percent Control(%). The format is binding.

For another test, the target named is T29, NEK4 (Homo sapiens, UniProt P51957).
T29 construct: purchased DiscoveRx KINOMEscan (Ambit Biosciences)
Put plainly: KINOMEscan panel screen. It counts as binding. Conditions: read-out: Percent Control(%).

The next test deals with T30, MEK2 (Homo sapiens, UniProt P36507).
T30 construct: purchased DiscoveRx KINOMEscan (Ambit Biosciences)
Put plainly: KINOMEscan panel screen. The following applies: read-out: Percent Control(%). It counts as binding.

A further test deals with T31, TAK1 (Homo sapiens, UniProt O43318).
T31 construct: purchased DiscoveRx KINOMEscan (Ambit Biosciences)
Put plainly: KINOMEscan panel screen. The format is binding. Conditions: read-out: Percent Control(%).

T7 sequence (Q99640 whole entry): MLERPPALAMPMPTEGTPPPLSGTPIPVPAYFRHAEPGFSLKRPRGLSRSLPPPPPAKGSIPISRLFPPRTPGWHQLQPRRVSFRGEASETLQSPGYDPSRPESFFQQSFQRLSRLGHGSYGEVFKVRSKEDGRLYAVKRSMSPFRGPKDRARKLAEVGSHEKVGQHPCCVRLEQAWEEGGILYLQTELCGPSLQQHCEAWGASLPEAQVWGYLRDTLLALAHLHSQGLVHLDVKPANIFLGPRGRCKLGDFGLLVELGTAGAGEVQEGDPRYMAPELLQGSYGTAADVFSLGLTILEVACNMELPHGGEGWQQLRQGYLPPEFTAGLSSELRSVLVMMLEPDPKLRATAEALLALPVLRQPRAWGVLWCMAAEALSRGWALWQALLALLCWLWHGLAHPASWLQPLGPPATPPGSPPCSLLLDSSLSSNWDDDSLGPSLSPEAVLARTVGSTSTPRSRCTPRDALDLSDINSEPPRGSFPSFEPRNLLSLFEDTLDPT
T17 sequence (P11362 22-822): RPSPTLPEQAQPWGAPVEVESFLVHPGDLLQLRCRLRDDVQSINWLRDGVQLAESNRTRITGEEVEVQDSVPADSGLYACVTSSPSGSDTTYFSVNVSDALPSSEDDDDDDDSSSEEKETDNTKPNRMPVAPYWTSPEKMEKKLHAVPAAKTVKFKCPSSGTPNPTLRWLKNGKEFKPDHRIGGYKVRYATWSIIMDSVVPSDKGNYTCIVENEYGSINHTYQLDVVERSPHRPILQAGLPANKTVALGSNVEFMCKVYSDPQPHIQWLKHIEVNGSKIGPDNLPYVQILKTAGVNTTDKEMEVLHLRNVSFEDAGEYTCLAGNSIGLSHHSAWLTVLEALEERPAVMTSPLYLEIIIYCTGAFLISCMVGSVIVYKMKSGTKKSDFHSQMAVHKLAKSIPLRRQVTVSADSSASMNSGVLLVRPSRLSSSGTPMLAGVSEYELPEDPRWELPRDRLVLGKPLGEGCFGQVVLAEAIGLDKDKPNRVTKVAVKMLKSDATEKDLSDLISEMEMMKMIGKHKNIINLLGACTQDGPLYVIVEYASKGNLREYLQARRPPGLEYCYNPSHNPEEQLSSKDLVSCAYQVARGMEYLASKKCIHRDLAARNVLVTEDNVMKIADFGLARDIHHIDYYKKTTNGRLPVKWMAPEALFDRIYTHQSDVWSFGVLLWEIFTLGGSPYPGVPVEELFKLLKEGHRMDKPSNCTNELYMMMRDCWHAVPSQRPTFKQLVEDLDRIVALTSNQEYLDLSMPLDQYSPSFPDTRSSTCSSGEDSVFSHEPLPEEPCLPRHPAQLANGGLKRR

Take `O=C(Nc1ccc(Oc2ncnc3[nH]ncc23)cc1)Nc1ccc(Cl)c(C(F)(F)F)c1` [Compound 1, 1-(4-(1H-pyrazolo[3,4-d]pyrimidin-4-yloxy)phenyl)-3-(4-chloro-3-(trifluoromethyl)phenyl)urea]: the IC50 at ERBB2 and on ERN1 was above 10 µM throughout.
For the molecule `CC(C)(C)c1cc(NC(=O)Nc2ccc(Oc3ncnc4[nH]ncc34)c(F)c2)no1` [SKLB-677, 1-(4-(1H-pyrazolo[3,4-d]pyrimidin-4-yloxy)-3-fluorophenyl)-3-(5-tert-butylisoxazol-3-yl)urea], the remaining binding at 10 µM on INSR turned out to be 87%; on AKT3, 100%; at ACVR1 it was 95%; at ZAP70, 100%; at CSF1R, 0.3%; at PKMYT1, 100%. Moreover, the remaining binding at 10 µM on RET(V804L) is 0%; on FGFR2, 2%; at CAMK1D, 35%; at MET(Y1235D), 5.4%; on CAMK4, 85%; at TNK1, 2.2%. In addition, the remaining binding at 10 µM came out at 68% at PAK1; 100% at SRPK2; 0% at KIT [1]; 100% on PDPK1; 1.4% on FGFR1; 71% on SRPK3. In addition, the remaining binding at 10 µM stood at 100% on MAP3K2; 8.7% on TIE1; 80% on DYRK1A; 58% on MLCK; 61% on DDR2; 9.4% at FGR. Further, the remaining binding at 10 µM on LRRK2(G2019S) was found to be 78%; at MAK it was 21%; on CAMK1, 21%; on NEK4 it was 38%; on MEK2 it was 5.9%; at TAK1, 100%. The Kd on PLK2 is above 10 µM; on KIT [2], 0.0031 µM; on PDGFRβ, 0.0027 µM. Moreover, the concentration for half-maximal inhibition (IC50) in the test on WM2664 was above 10 µM. In [3], the “MYC, CCND1, and NKD1 transcripts” value is listed as “reduced”.

One may read the IC50 as the midpoint of a concentration-inhibition curve. What is called Kd is the equilibrium constant for the complex coming apart.
